# Test results reported in patent US9605042B2, “Compositions and methods related to tauopathy” (REGENTS OF THE UNIVERSITY OF MINNESOTA, priority 2012, dated 2017).
# pKi: −log10 of the molar value. Peptide text beside a SMILES is read from it. * marks the point of attachment. Cbz = O=C(OCc1ccccc1)*; CH2F = FC*
# Columns and labels:
# caspase-7 = target: T1, caspase-7 (Homo sapiens, UniProt P55210); experiment: competitive binding assay against caspase-7 (PROMEGA-GLO 2); settings: read-out: K value (caspase-7)
# T1 sequence (P55210 24-198 limits assumed): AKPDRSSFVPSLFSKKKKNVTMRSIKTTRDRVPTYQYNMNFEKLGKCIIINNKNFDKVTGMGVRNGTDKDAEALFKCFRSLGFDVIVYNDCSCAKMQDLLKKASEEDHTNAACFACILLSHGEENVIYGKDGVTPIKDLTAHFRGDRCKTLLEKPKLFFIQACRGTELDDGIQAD
# T1 sequence (P55210 207-303 limits assumed): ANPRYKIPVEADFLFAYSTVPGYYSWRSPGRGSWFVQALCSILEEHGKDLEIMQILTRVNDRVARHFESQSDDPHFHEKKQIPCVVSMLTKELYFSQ
# rat hippocampal neurons = experiment: GFP-tau-containing dendritic spines in neurons coexpressing DsRed and GFP-tau; type: cell-based; settings: rising concentration of caspase-2 inhibitor
# Protocol: FIG. 15. Images of rat hippocampal neurons coexpressing Dsred and GFP-tagged wild-type tau or tau P301 L mutant. Neurons were treated with caspase-2 inhibitor Ac-VDVAD-CHO (SEQ ID NO:36) or caspase-3 inhibitor Ac-DEVD-CHO (SEQ ID NO:37) for 1 day.
# FIG. 16. Quantification of total spines and GFP-tau-containing spines in neurons coexpressing DsRed and GFP-tau.
# Based on methods described in Hoover et al., Neuron 2010, dissociated rat hippocampal primary neuron cultures were prepared. Briefly, a 25 mm glass coverslip (thickness, 0.08 mm) was glued over a 22 mm hole in the bottom of a 35 mm tissue culture dish using silicone sealant. Dissociated neuronal cultures from rat hippocampi at P1 were prepared. Neurons were plated onto prepared 35 mm tissue culture dishes at a density of 1×10^6 cells per dish. The age of cultured neurons was counted from the day of plating (1 DIV). Neurons at 7 DIV were transfected using a standard calcium phosphate precipitation method and allowed to grow to maturity (>3 weeks) to be imaged. Neurons were transfected with equivalent concentrations of constructs encoding various tau proteins. The plasmid encoding DsRed was cotransfected with tau constructs to visualize dendritic spines. Recombinant tau protein or TCP35 protein (10 μM) was directly added to culture medium 1 hour before imaging to stimulate neuronal cultures. […]
# rTg4510 neurons = experiment: Excitatory synaptic transmission (mEPSCs) in rTg4510 neurons; type: cell-based, mouse; settings: 20 μM for two hours
# Protocol: FIG. 17. Excitatory Synaptic Transmission in rTg4510 neurons treated with caspase-2 inhibitor. (A) Mean mEPSC amplitudes of rTg4510 neurons (−/− and +/+) treated with 20 μM caspase-2 inhibitor (Ac-VDVAD-CHO; SEQ ID NO:36) for two hours. […] Caspase-2 inhibitor had no effect on rTg4510 (−/−) neurons. (B) Mean mEPSC frequency of rTg4510 neurons (−/− and +/+) treated with 20 μM caspase-2 inhibitor for two hours. Caspase-2 inhibitor had no effect on rTg4510 neurons (−/− or +/+) frequencies.
# Miniature excitatory postsynaptic […] (mEPSCs) were recorded at −55 mV in artificial cerebrospinal fluid (aCSF) containing 100 LM AP7 (NMDAR antagonist, Tocris Bioscience, UK), 1 μM TTX (sodium channel blocker, Tocris Bioscience, UK) and 50 μM bicuculline (GABA receptor antagonist, Sigma-Aldrich, St. Louis, Mo.). Electrophysiology experiments were conducted using AXON DIGIDATA 1440A data acquisition system (Molecular Devices, LLC, Sunnyvale, Calif.), AXOPATCH 200B amplifier (Molecular Devices, LLC, Sunnyvale, Calif.), pCLAMP10 software (Molecular Devices. LLC, Sunnyvale, Calif.). Data was analyzed using AxoGraph X software (Berkeley, Calif.).
# [1] = test system: recombinant caspases -1, -2, -3, -6, -7, -8, -9, or -10; experiment: Caspase cleavage assay of tau proteins (immunoblot with Tau-13); type: biochemical; settings: 50 μM inhibitor, 37° C., 2 hours, tau from three sources
# Protocol: FIG. 5. Caspase-2 cleaves tau in vitro, producing a 35 kDa fragment. Recombinant caspases -1, -2, -3, -6, -7, -8, -9, or -10 were incubated at 37° C. for 2 hours with tau proteins derived from three different sources. […] Caspases-1 and -8 may cleave tau proteins near the N-terminus and remove Tau-13 mAb epitopes, preventing detection of proteolytic products. Arrows denote the 35 kDa fragment, and arrowheads denote the tau fragment truncated at D421.
# Tau proteins (200 ng immunoprecipitates from rTg[tauP301L]4510 or rTg[tauWT]21221 brain lysates, or 1 μl synthetic proteins generated with TNT T7 Quick Coupled Transcription/Translation System [Promega Corp., Madison, Wis.]) were diluted in assay buffer (20 mM HEPES pH 7.2, 10 mM DTT, 1 mM EDTA, 0.1% CHAPS) to a final volume of 50 μl. One unit of recombinant caspase was added to the reactions in the presence or absence of 50 μM z-VAD-fmk (Calbiochem, EMD Biochemicals, San Diego, Calif.). The reactions were incubated at 37° C. for […] and stopped by adding Laemmli sample buffer (62.5 mM Tris-HCl [pH 6.8], 25% glycerol, 2% SDS, and 0.01% bromophenol blue).
# recombinant caspase-2 = target: T2, recombinant caspase-2 (Homo sapiens, UniProt P42575); experiment: Screening assay: caspase-2-mediated cleavage of Asp314 peptide substrate (LabChip); type: biochemical; settings: substrate coincubated with recombinant caspase-2 and inhibitor, fluorescence by LabChip
# T2 construct: made in house
# T2 sequence (P42575 170-325 limits assumed): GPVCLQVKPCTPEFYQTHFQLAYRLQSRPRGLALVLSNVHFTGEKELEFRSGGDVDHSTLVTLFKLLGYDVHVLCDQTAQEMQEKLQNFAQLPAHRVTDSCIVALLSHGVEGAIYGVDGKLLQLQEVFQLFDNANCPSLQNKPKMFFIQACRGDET
# T2 sequence (P42575 348-452 limits assumed): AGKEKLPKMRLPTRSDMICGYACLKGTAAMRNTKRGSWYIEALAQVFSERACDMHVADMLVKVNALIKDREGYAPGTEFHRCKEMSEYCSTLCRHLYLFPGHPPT
# Protocol: FIG. 10. Caspase-2-mediated cleavage of Asp314 peptide substrate. Synthetic peptide substrate FITC-AHX-GSVQIVYKPVDLSKVTS-COOH (SEQ ID NO:4) was designed based on amino acids 304-320 of tau protein that encompasses Asp314 cleavage site. The peptide substrate was cleaved by coincubating with recombinant caspase-2 and was separated from cleavage product by using LabChip drug discovery system. The fluorescence emitted by FITC group was monitored to measure peptide quantity.
# FIG. 11. Caspase inhibitor blocks caspase-2-mediated cleavage of Asp314 peptide substrate. Synthetic peptide substrate was coincubated with recombinant caspase-2 in the presence of general caspase inhibitor z-VAD-fmk. The fluorescence of the substrate peptide was measured by using LabChip drug discovery system.
# Unless otherwise stated, chemicals were purchased from Sigma-Aldrich (St. Louis, Mo.). Caspase-2 was made in-house; reference Caspase-2 inhibitor Z-VAD-FMK was purchased from BD Pharmingen (San Diego, Calif.). […]
# Plates were screened in a LabChip 3000 (Caliper Life Sciences Inc., Hopkinton, Mass.) with temperature and relative humidity set to 20° C. and 50%. A 12-sipper chip sampled contents from each well and measured the fluorescent intensity of the substrate and product peaks. […] Data were analyzed using Caliper's HTS Well Analyzer software.
molecule,measurement,setting,value
"CC(=O)N[C@@H](Cc1ccc(O)cc1)C(=O)N[C@@H](CCCCN)C(=O)N1CCC[C@H]1C(=O)N[C@H](C(=O)N[C@H](C=O)CC(=O)O)C(C)C [SEQ ID NO:1, Ac-YKPVD-CHO] (Ac-YKPVD-aldehyde)",pKi,caspase-7,< 4.00
Ac-VDVAD-CHO (Ac-VDVAD-aldehyde),number of spines with tau,rat hippocampal neurons,decreases
same,"mean mEPSC amplitude, rTg4510 (−/−) neurons",rTg4510 neurons,no effect
same,"mean mEPSC frequency, rTg4510 neurons (−/− or +/+)",rTg4510 neurons,no effect
same,"mean amplitude of AMPA mEPSCs, rTg4510 (+/+) neurons",rTg4510 neurons; compared to vehicle,significantly increased
benzyloxycarbonyl-Val-Ala-Asp-fluoromcthylketone (Cbz-Val-Ala-Asp-CH2F) [z-VAD-fmk],cleavage of tau proteins by recombinant caspases,[1],blocked all cleavage
same,caspase-2-mediated cleavage of Asp314 peptide substrate,recombinant caspase-2,blocks
